From publication PMC11648230, “Structure–function analysis of tRNA t^6A-catalysis, assembly, and thermostability of Aquifex aeolicus TsaD2B2 tetramer in complex with TsaE” (The Journal of Biological Chemistry, 2024)

Molecular target: T1, A. aeolicus TsaD2B2 (TsaD-TsaB) (Aquifex aeolicus, UniProt O66986)
T1 construct: recombinant from E. coli; co-expressed (pET21a-BC10_DZop), C-terminal 6His on TsaB; tetramer; Cys10 of TsaD oxidized (CSO10) in crystals; with tRNA threonylcarbamoyladenosine biosynthesis protein TsaB
T1 sequence (O66494 entry or part of it): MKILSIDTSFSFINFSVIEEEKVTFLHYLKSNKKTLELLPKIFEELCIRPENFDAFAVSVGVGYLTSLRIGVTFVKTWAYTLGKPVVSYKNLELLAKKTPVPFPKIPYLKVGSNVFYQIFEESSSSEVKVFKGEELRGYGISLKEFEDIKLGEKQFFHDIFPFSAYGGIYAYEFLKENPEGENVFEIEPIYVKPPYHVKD
T1 sequence (O66986 whole entry): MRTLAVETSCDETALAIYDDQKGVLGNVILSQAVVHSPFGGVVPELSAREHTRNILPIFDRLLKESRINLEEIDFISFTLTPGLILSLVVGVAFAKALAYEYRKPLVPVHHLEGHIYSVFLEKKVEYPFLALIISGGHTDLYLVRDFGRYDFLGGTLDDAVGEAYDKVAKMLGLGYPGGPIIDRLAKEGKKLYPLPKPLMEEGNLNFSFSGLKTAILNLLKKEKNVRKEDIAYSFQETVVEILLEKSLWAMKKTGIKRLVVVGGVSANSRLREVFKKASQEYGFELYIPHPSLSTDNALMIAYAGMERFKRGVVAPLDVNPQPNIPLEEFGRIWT
Experiment: LC-MS of tRNA t6A formation
Assay type: biochemical
Settings: isolated TC-AMP 30 uM, EDTA-dialyzed TsaD2B2 plus MgCl2, FeCl2 or ZnCl2 100 uM, 60 uM tRNA-Lys(UUU), no TsaE

**Q.** `C[C@@H](O)[C@H](NC(=O)OP(=O)(O)OC[C@H]1O[C@@H](n2cnc3c(N)ncnc32)[C@H](O)[C@@H]1O)C(=O)O` [TC-AMP] was tested. Which “LC-MS of tRNA t6A formation” value did it give?
**A.** The value was “we only used EDTA-dialyzed TsaD2B2, HPLC-purified TC-AMP, and SEC-purified IVT tRNA^LysUUU”.
